# Calls of active or inactive are those of the source. The rule behind the calls is not given here.
# Experiments:
# [1] = target: Atypical kinase COQ8B, mitochondrial (Homo sapiens) (UniProt Q96D53); test: Inhibition of ADCK4 (unknown origin) at 10 uM by Ambit Kinomescan binding assay
# [2] = tested on: Epidermal growth factor receptor (Homo sapiens), P00533 [L858R]; test: Inhibition of EGFR L858R mutant (unknown origin) at 10 uM by Ambit Kinomescan binding assay relative to control
# [3] = target: Receptor tyrosine-protein kinase erbB-2 (Homo sapiens) (UniProt P04626); test: Inhibition of ERBB2 (unknown origin) at 10 uM by Ambit Kinomescan binding assay
# [4] = target: Fibroblast growth factor receptor 4 (Homo sapiens) (UniProt P22455); test: Inhibition of FGFR4 (unknown origin) at 10 uM by Ambit Kinomescan binding assay relative to control
# [5] = target: Membrane-associated tyrosine- and threonine-specific cdc2-inhibitory kinase (Homo sapiens) (UniProt Q99640); test: Inhibition of PKMYT1 (unknown origin) at 10 uM by Ambit Kinomescan binding assay
# [6] = target: Tyrosine-protein kinase CSK (Homo sapiens, UniProt P41240); test: Inhibition of CSK ACT labeling site harbouring VSDFGLTKEASSTQDTGKLPVKWTAPEALR in human A-375 cells at 5 uM by KiNativ Profiling analysis relative to control; assay type: cell-based
# [7] = target: 5'-AMP-activated protein kinase catalytic subunit alpha-1 (Homo sapiens) (UniProt Q13131); test: Inhibition of AMPKa1 ATP labeling site in human Huh-7 cells at 10 uM by KiNativ Profiling analysis relative to control; assay type: cell-based
# [8] = target: DNA-dependent protein kinase catalytic subunit (Homo sapiens) (UniProt P78527); test: Inhibition of PRKDC ATP labeling site harbouring EHPFLVKGGEDLR in human Huh-7 cells at 1 uM by KiNativ Profiling analysis relative to control; assay type: cell-based
# [9] = target: Serine/threonine-protein kinase 36 (Homo sapiens) (UniProt Q9NRP7); test: Inhibition of STK36 (unknown origin) at 10 uM by Ambit Kinomescan binding assay relative to control; values are per cent of control
# [10] = target: Ribosomal protein S6 kinase alpha-4 (Homo sapiens) (UniProt O75676); test: Inhibition of C-terminal RPS6KA4 kinase domain 2 (unknown origin) at 10 uM by Ambit Kinomescan binding assay; values are per cent of control
# [11] = target: Tyrosine-protein kinase JAK3 (Homo sapiens) (UniProt P52333); test: Inhibition of JAK3 JH1catalytic domain (unknown origin) at 10 uM by Ambit Kinomescan binding assay relative to control; values are per cent of control
# [12] = target: Focal adhesion kinase 1 (Homo sapiens) (UniProt Q05397); test: Inhibition of FAK Lys1 labeling site in human Huh-7 cell lysate at 1 uM by KiNativ Profiling analysis relative to control; assay type: subcellular
# [13] = target: T1, Serine/threonine-protein kinase 3 (Homo sapiens) (UniProt Q13188); test: Inhibition of MST2 Lys2 labeling site harbouring DIKAGNILLNTEGHAK in human Huh-7 cell lysate at 1 uM by KiNativ Profiling analysis relative to control; assay type: subcellular
# T1 sequence (whole entry): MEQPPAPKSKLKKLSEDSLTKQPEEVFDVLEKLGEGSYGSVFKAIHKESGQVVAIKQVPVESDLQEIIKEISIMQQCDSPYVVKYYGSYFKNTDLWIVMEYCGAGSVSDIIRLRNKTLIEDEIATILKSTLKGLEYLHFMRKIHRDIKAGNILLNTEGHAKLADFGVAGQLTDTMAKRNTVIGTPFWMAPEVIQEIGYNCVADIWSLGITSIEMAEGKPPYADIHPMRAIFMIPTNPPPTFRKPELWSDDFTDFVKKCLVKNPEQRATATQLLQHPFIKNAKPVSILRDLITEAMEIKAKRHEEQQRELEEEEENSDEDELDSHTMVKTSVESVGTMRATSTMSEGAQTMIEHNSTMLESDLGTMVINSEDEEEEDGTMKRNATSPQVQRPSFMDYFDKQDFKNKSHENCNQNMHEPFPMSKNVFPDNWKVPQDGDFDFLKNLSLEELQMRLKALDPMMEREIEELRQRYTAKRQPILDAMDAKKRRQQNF
# [14] = target: Serine/threonine-protein kinase Nek7 (Homo sapiens) (UniProt Q8TDX7); test: Inhibition of NEK7 Lys2 labeling site harbouring VMHRDIKPANVFITATGVVK in human Huh-7 cell lysate at 1 uM by KiNativ Profiling analysis relative to control; assay type: subcellular
# [15] = target: Serine/threonine-protein kinase 24 (Homo sapiens) (UniProt Q9Y6E0); test: Inhibition of MST3 Lys2 labeling site harbouring DIKAANVLLSEHGEVK in human Huh-7 cells at 1 uM by KiNativ Profiling analysis relative to control; assay type: cell-based
# [16] = target: T2, Serine/threonine-protein kinase TBK1 (Homo sapiens) (UniProt Q9UHD2); test: Inhibition of TBK1 Lys1 labeling site in human Huh-7 cells at 1 uM by KiNativ Profiling analysis relative to control; assay type: cell-based
# T2 sequence (whole entry): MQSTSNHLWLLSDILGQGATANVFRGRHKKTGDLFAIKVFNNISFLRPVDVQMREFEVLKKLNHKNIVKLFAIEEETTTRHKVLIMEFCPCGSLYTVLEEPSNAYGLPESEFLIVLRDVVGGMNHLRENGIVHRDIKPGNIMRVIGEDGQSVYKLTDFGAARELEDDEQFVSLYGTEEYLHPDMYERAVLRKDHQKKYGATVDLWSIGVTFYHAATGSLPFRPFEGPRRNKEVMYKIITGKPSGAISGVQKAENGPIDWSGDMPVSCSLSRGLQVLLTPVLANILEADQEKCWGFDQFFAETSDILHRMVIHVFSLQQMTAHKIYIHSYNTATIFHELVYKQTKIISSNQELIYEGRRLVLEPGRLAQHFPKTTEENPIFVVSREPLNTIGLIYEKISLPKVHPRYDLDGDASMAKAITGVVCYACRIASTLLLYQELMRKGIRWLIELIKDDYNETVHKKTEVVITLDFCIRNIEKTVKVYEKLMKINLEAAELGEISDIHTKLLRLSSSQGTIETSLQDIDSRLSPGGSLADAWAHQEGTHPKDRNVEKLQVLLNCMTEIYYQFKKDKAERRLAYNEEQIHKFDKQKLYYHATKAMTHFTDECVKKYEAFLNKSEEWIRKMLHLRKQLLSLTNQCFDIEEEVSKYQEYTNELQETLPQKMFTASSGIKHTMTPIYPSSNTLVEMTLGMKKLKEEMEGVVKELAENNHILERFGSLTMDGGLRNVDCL
# [17] = target: Ephrin type-A receptor 4 (Homo sapiens) (UniProt P54764); test: Inhibition of EPHA4 (unknown origin) at 1 uM by Ambit Kinomescan binding assay relative to control; values are per cent of control
# Epidermal growth factor receptor (Homo sapiens), P00533 [L858R], sequence (P00533 whole entry L858R): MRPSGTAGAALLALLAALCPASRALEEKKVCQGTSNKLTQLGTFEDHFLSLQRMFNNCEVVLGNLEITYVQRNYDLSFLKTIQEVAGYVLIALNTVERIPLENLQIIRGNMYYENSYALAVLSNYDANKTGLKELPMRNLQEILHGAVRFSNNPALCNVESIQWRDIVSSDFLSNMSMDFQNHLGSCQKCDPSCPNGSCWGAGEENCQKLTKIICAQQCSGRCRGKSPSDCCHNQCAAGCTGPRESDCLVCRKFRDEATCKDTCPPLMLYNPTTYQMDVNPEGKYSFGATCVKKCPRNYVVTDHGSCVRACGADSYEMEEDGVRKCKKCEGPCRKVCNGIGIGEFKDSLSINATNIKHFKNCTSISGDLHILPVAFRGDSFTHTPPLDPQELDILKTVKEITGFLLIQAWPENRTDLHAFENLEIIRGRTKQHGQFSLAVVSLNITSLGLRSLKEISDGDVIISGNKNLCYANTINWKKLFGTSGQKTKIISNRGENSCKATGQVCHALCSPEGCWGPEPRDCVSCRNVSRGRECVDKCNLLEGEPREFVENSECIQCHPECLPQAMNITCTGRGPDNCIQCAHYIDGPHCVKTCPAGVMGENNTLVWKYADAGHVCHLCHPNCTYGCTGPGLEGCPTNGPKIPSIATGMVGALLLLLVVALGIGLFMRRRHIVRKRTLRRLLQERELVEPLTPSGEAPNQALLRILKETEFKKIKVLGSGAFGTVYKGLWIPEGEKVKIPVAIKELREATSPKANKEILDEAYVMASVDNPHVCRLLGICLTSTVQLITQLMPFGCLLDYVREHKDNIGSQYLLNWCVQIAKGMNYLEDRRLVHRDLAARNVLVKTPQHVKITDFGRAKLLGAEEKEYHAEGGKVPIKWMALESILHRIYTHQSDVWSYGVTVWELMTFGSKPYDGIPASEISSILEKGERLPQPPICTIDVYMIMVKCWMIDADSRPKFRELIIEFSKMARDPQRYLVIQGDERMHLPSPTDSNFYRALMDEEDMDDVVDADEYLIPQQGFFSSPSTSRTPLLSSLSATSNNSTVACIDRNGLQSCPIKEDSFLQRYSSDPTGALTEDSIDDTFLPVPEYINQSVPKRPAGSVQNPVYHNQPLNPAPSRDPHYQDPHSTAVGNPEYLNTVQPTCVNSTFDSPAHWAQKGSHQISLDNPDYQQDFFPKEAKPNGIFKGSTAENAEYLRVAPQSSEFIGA
# Ribosomal protein S6 kinase alpha-4 (Homo sapiens), sequence (O75676 whole entry, looked up, the tested form may be a part): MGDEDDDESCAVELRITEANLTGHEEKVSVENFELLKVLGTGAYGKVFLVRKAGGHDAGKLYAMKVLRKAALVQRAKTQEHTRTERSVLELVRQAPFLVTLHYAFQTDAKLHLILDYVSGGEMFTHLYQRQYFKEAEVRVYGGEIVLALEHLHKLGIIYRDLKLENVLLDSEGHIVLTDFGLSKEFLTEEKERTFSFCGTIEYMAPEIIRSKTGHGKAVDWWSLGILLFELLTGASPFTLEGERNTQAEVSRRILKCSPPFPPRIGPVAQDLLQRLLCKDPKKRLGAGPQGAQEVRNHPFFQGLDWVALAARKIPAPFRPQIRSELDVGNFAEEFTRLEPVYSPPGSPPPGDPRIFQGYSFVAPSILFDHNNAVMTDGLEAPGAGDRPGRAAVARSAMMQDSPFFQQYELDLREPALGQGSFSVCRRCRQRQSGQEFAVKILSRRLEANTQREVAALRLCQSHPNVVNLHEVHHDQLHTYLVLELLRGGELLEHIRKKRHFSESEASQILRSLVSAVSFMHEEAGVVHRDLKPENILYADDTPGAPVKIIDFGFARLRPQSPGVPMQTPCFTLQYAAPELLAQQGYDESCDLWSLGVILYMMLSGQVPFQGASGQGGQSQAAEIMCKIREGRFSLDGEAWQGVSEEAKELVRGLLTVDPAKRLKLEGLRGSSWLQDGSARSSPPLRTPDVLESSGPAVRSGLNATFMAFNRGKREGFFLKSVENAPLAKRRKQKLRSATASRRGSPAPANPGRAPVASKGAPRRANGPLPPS
# Tyrosine-protein kinase JAK3 (Homo sapiens), sequence (P52333 whole entry, the tested form may be a part): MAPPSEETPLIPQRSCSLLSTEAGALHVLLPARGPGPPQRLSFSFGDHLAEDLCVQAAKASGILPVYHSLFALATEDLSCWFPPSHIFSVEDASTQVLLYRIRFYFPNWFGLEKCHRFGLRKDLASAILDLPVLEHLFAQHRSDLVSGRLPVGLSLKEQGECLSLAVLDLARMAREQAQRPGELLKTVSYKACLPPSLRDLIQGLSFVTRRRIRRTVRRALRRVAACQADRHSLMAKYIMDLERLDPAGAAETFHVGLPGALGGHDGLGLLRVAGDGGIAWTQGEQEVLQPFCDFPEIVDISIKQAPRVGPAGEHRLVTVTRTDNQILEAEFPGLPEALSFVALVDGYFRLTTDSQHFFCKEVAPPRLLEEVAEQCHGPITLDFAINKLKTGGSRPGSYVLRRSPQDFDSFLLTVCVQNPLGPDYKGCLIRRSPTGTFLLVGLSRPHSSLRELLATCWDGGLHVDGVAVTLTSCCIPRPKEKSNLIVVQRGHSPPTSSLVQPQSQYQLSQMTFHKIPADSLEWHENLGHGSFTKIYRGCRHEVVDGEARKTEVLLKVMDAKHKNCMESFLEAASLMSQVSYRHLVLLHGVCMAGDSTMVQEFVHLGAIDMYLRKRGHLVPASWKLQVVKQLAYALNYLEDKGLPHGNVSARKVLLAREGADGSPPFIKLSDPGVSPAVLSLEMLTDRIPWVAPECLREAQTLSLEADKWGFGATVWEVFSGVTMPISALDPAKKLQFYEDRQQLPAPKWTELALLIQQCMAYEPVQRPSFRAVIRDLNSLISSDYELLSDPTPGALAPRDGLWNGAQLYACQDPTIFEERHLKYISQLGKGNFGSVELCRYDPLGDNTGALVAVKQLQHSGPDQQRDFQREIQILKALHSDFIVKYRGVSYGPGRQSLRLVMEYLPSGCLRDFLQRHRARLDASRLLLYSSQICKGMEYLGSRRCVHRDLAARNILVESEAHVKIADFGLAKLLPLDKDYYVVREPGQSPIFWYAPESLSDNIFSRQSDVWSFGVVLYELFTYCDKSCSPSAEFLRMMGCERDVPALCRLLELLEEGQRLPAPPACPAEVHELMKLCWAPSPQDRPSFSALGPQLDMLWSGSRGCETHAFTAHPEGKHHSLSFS
# Focal adhesion kinase 1 (Homo sapiens), sequence (Q05397 2-1052 limits assumed): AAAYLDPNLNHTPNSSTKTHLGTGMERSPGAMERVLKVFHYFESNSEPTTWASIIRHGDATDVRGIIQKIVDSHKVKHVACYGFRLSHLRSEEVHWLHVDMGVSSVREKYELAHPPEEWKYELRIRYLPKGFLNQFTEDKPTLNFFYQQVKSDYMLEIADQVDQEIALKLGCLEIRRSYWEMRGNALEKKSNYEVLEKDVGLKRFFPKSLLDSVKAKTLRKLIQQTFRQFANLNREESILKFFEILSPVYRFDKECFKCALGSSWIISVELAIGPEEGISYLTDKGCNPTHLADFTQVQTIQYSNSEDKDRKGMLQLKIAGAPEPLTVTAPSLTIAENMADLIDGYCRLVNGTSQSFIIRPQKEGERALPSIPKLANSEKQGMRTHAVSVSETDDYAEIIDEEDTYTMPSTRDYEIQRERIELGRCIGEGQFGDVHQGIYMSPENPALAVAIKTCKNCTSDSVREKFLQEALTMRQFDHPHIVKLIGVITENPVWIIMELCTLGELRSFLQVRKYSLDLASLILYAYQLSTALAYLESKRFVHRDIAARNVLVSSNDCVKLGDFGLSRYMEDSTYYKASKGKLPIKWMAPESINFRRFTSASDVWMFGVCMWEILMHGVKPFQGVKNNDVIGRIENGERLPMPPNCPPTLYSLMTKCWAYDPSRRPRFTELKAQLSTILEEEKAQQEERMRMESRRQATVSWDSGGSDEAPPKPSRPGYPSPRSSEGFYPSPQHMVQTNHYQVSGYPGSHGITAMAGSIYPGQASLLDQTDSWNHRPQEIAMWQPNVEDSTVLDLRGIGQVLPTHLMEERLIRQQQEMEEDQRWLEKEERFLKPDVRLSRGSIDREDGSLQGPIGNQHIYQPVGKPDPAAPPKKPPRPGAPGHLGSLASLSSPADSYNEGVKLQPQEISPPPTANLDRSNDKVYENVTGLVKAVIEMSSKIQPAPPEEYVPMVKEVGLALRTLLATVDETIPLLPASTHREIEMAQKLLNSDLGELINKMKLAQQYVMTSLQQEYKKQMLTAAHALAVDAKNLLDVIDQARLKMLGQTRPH
# Tyrosine-protein kinase CSK, sequence (P41240 2-450 limits assumed): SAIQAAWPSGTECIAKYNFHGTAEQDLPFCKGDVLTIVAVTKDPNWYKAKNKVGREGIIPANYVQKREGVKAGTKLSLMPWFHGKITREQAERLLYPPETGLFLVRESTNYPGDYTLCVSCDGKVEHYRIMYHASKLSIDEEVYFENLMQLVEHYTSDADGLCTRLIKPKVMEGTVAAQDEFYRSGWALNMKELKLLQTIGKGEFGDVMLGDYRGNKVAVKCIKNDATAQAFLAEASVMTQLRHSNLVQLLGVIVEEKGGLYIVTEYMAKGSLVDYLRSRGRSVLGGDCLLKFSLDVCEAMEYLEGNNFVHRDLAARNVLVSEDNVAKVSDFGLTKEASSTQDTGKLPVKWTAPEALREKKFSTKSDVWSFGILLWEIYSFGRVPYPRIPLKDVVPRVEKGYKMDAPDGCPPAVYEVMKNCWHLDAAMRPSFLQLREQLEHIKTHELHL
# Serine/threonine-protein kinase Nek7 (Homo sapiens), sequence (Q8TDX7 whole entry, looked up): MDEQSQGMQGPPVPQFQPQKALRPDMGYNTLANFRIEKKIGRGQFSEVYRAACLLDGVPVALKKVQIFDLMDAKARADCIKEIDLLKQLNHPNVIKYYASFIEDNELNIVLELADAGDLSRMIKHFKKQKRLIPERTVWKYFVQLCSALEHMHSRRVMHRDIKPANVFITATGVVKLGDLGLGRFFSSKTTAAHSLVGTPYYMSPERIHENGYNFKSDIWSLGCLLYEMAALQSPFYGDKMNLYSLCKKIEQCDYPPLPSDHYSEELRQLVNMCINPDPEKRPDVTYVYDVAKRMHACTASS
smiles,measurement,setting,value
CCN1CCN(Cc2ccc(NC(=O)c3ccc(C)c(Oc4ccnc5[nH]ccc45)c3)cc2C(F)(F)F)CC1,inhibition,[1],inactive
same,inhibition,[2],14%
same,inhibition,[3],inactive
same,inhibition,[4],0.45%
same,inhibition,[5],inactive
same,inhibition,[6],57.7%
same,inhibition,[7],14%
same,inhibition,[8],1.4%
same,residual activity,[9],0.2%
same,percent of control,[10],4.7%
same,percent of control,[11],2.4%
CNc1cc(Oc2cc(C(=O)Nc3cc(N4CCN(C)CC4)cc(C(F)(F)F)c3)ccc2C)ncn1,inhibition,[12],3.3%
same,inhibition,[13],8.2%
same,inhibition,[14],19.4%
same,inhibition,[15],4.3%
same,inhibition,[16],30.9%
CCN1CCN(Cc2ccc(NC(=O)c3ccc(C)c(/C=C/c4cnc5[nH]ccc5c4OC)c3)cc2C(F)(F)F)CC1,residual activity,[17],3.7%

# From ChEMBL document CHEMBL5696442, “Discovery of type II inhibitors of TGFβ-activated kinase 1 (TAK1) and mitogen-activated protein kinase kinase kinase kinase 2 (MAP4K2)” (J Med Chem, 2015)
